Among the data in PubChem BioAssay AID328 (DTP/NCI, 2004) are T/C values, retold here.

The experiment concerns BDF1 mice, P388 leukemia ip, median survival T/C. Put plainly: NCI In Vivo Anticancer Drug Screen. Data for tumor model P388 Leukemia (intraperitoneal) in B6D2F1 (BDF1) mice. The conditions noted are these: endpoint: median survival time, higher = longer survival. The procedure, abridged: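 Antitumour effect was judged in vivo: survival in drug-treated mice, normalised to that of vehicle-dosed controls, gives the reported T/C.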

Setting [1] is: dose: 50.0 mg/kg/injection, schedule: Q01DX009 (ip), vehicle: saline with Tween-80.
[2] abbreviates: dose: 100.0 mg/kg/injection, schedule: Q01DX009 (ip), vehicle: saline with Tween-80.
[3] abbreviates: dose: 200.0 mg/kg/injection, schedule: Q01DX009 (ip), vehicle: saline with Tween-80.
The mark [4] stands for this setting: dose: 100.0 mg/kg/injection, schedule: Q01DX009 (ip), vehicle: saline.
Setting [5] is: dose: 200.0 mg/kg/injection, schedule: Q01DX009 (ip), vehicle: saline.
[6] abbreviates: dose: 50.0 mg/kg/injection, schedule: Q01DX009 (ip), vehicle: saline.

Values joined by “and” are separate entries in the source; they are usually repeats but may differ in a detail not shown here. Equal values may be shown once. Inconclusive results and toxic doses are left out.

As to `CCCCCCCCCCNCCS`, the T/C is, setting by setting: (dose: 8.0 mg/kg/injection, schedule: Q01DX010 (ip), vehicle: carboxymethylcellulose (CMC)) 105 % of control; (dose: 16.0 mg/kg/injection, schedule: Q01DX010 (ip), vehicle: carboxymethylcellulose (CMC)) 110 % of control; (dose: 32.0 mg/kg/injection, schedule: Q01DX010 (ip), vehicle: carboxymethylcellulose (CMC)) 105 % of control.

With `CCCCOCCOc1ccc(C(=O)OC)cc1`, the T/C was 100 % of control (dose: 50.0 mg/kg/injection, schedule: Q04DX003 (ip), vehicle: saline sonified); 100 % of control (dose: 100.0 mg/kg/injection, schedule: Q04DX003 (ip), vehicle: saline sonified); 105 % of control (dose: 200.0 mg/kg/injection, schedule: Q04DX003 (ip), vehicle: saline sonified).

In the case of `Cc1cc(N(C)C)cc(C)c1N=Nc1cc[n+]([O-])cc1`, the T/C under setting [1] was 104 % of control and the T/C under setting [2] is 124 % of control.

Turning to `Clc1ccc2c(c1)N(CCCN1CCCC13CCCCC3)c1ccccc1S2`, the T/C (dose: 1.56 mg/kg/injection, schedule: Q01DX009 (ip), vehicle: saline) is 87 % of control; the T/C (dose: 1.56 mg/kg/injection, schedule: Q04DX003 (ip), vehicle: saline with Tween-80) is 91 % of control; the T/C (dose: 3.12 mg/kg/injection, schedule: Q01DX009 (ip), vehicle: saline) was 104 % of control; the T/C (dose: 3.12 mg/kg/injection, schedule: Q04DX003 (ip), vehicle: saline with Tween-80) is 91 % of control; the T/C (dose: 6.25 mg/kg/injection, schedule: Q01DX009 (ip), vehicle: saline) was 95 % of control; the T/C (dose: 6.25 mg/kg/injection, schedule: Q04DX003 (ip), vehicle: saline with Tween-80) was 91 % of control. In addition, the T/C was 95 % of control (dose: 12.5 mg/kg/injection, schedule: Q01DX009 (ip), vehicle: saline) and 95 % of control (dose: 12.5 mg/kg/injection, schedule: Q04DX003 (ip), vehicle: saline with Tween-80).

As for `O=Cc1ccc(C(Cl)(Cl)Cl)cc1`, the T/C is, setting by setting: under setting [1], 92 % of control; under setting [3], 122 % of control; (dose: 400.0 mg/kg/injection, schedule: Q04DX003 (ip), vehicle: saline with Tween-80) 163 % of control.

With `C[NH-].C[NH-].[I][Pt+2][I]`, the T/C (dose: 1.56 mg/kg/injection, schedule: Q04DX003 (ip), vehicle: other) is 120 % of control; the T/C (dose: 3.12 mg/kg/injection, schedule: Q04DX003 (ip), vehicle: other) was 120 % of control; the T/C (dose: 6.25 mg/kg/injection, schedule: Q04DX003 (ip), vehicle: other) is 163 % of control; the T/C (dose: 12.5 mg/kg/injection, schedule: Q04DX003 (ip), vehicle: other) was 163 % of control; the T/C (dose: 50.0 mg/kg/injection, schedule: Q04DX003 (ip), vehicle: other) is 154 % of control; the T/C (dose: 100.0 mg/kg/injection, schedule: Q04DX003 (ip), vehicle: other) is 116 % of control.

`Nc1nc(N)c(Cl)c(Nc2cccc(Cl)c2)n1`: the T/C was 102 % of control under setting [1], 103 % of control under setting [2] and 105 % of control under setting [3].

With `CCOC(=O)N=C=O`, the T/C is 114 % of control (dose: 100.0 mg/kg/injection, schedule: Q01DX009 (ip), vehicle: water); 96 % of control (dose: 100.0 mg/kg/injection, schedule: Q04DX003 (ip), vehicle: water); 110 % of control (dose: 200.0 mg/kg/injection, schedule: Q01DX009 (ip), vehicle: water); 99 % of control (dose: 200.0 mg/kg/injection, schedule: Q04DX003 (ip), vehicle: water); 107 % of control (dose: 400.0 mg/kg/injection, schedule: Q04DX003 (ip), vehicle: water).

For the molecule `COC(=O)/C=C/CCOS(C)(=O)=O`, the T/C was 104 % of control (dose: 100.0 mg/kg/injection, schedule: Q04DX002 (ip), vehicle: saline with Tween-80); 124 % of control (dose: 200.0 mg/kg/injection, schedule: Q04DX002 (ip), vehicle: saline with Tween-80); 107 % of control (dose: 400.0 mg/kg/injection, schedule: Q04DX002 (ip), vehicle: saline with Tween-80).

Consider `O=C1OC2=C(Cl)C=CC=CC2C12C1C=CC=CC12` (centres undefined), for which the T/C under setting [1] was 113 % of control, the T/C under setting [2] is 110 % of control and the T/C under setting [3] was 107 % of control.

For the molecule `C=C1C(=O)O[C@@H]2/C=C(\CO)CC/C=C(\C)C[C@H](OC(=O)C(C)CO)[C@@H]12` (some centres undefined), the T/C (dose: 2.75 mg/kg/injection, schedule: Q01DX009 (ip), vehicle: alcohol) was 118 % of control.

Consider `CCOC(N)=O`, for which the T/C under setting [4] was 120 % of control; the T/C (dose: 125.0 mg/kg/injection, schedule: Q01DX010 (ip), vehicle: saline) was 154 % of control; the T/C under setting [5] was 90 % of control; the T/C (dose: 250.0 mg/kg/injection, schedule: Q01DX010 (ip), vehicle: saline) was 154 % of control; the T/C (dose: 400.0 mg/kg/injection, schedule: Q01DX009 (ip), vehicle: saline) is 100 % of control; the T/C (dose: 500.0 mg/kg/injection, schedule: Q01DX010 (ip), vehicle: saline) was 113 % of control.

For the molecule `COc1cc2c(c3c1c(=O)c1cc(OC(C)=O)ccc1n3C)C=CC(C)(C)O2`, the T/C runs as follows: (dose: 10.0 mg/kg/injection, schedule: Q01DX009 (ip), vehicle: Klucel (hydroxypropylcellulose) (HPC)) 100 % of control; (dose: 20.0 mg/kg/injection, schedule: Q01DX009 (ip), vehicle: Klucel (hydroxypropylcellulose) (HPC)) 98 % of control; (dose: 40.0 mg/kg/injection, schedule: Q01DX009 (ip), vehicle: Klucel (hydroxypropylcellulose) (HPC)) 106 % of control.

Turning to `CC(/C=C/c1ccccc1)=N\NC(=O)CN(C)C`, the T/C under setting [6] is 94 % of control and the T/C under setting [4] was 97 % of control.

For the molecule `Cc1nc(N)sc1CCCl`, the T/C (dose: 10.0 mg/kg/injection, schedule: Q01DX009 (ip), vehicle: saline) is 104 % of control; the T/C (dose: 20.0 mg/kg/injection, schedule: Q01DX009 (ip), vehicle: saline) is 104 % of control; the T/C (dose: 40.0 mg/kg/injection, schedule: Q01DX009 (ip), vehicle: saline) is 100 % of control; the T/C (dose: 80.0 mg/kg/injection, schedule: Q01DX009 (ip), vehicle: saline) is 113 % of control.

As to `S=C(S)N1CCN(C(=S)S)CC1`, the T/C was 100 % of control and 104 % of control and 110 % of control (dose: 25.0 mg/kg/injection, schedule: Q01DX009 (ip), vehicle: saline); 91 % of control (dose: 35.0 mg/kg/injection, schedule: Q01DX009 (ip), vehicle: saline); 95 % of control and 105 % of control under setting [6]; 95 % of control under setting [4]; 86 % of control under setting [5].

In the case of `CSc1ccc(NC(=O)Nc2ccc(N=Nc3ccccc3)cc2)cc1`, the T/C (dose: 42.5 mg/kg/injection, schedule: Q01DX009 (ip), vehicle: Klucel (hydroxypropylcellulose) (HPC)) is 100 % of control; the T/C (dose: 85.0 mg/kg/injection, schedule: Q01DX009 (ip), vehicle: Klucel (hydroxypropylcellulose) (HPC)) was 100 % of control; the T/C (dose: 170.0 mg/kg/injection, schedule: Q01DX009 (ip), vehicle: Klucel (hydroxypropylcellulose) (HPC)) was 100 % of control.

With `CN(C)c1ccc(C(=O)NN)cc1`, the T/C by setting is: (dose: 6.25 mg/kg/injection, schedule: Q01DX009 (ip), vehicle: saline with Tween-80) 91 % of control; (dose: 12.5 mg/kg/injection, schedule: Q01DX009 (ip), vehicle: saline with Tween-80) 91 % of control; (dose: 25.0 mg/kg/injection, schedule: Q01DX009 (ip), vehicle: saline with Tween-80) 122 % of control; (dose: 25.0 mg/kg/injection, schedule: Q04DX003 (ip), vehicle: saline with Tween-80) 100 % of control; under setting [1], 115 % of control; (dose: 50.0 mg/kg/injection, schedule: Q04DX003 (ip), vehicle: saline with Tween-80) 98 % of control. Moreover, the T/C under setting [2] is 121 % of control; the T/C (dose: 100.0 mg/kg/injection, schedule: Q04DX003 (ip), vehicle: saline with Tween-80) is 107 % of control; the T/C under setting [3] is 100 % of control; the T/C (dose: 200.0 mg/kg/injection, schedule: Q04DX003 (ip), vehicle: saline with Tween-80) was 109 % of control; the T/C (dose: 300.0 mg/kg/injection, schedule: Q01DX009 (ip), vehicle: saline with Tween-80) is 106 % of control.
